We go through 47 compounds from US12473293B2, “Pharmacologically active heterocyclic-substituted pyrazolo[1,5-a]pyrimidine derivatives” (Richter Gedeon Nyrt., priority 2020, dated 2025).

SMILES strings stand for the structures. Some results are limits rather than exact numbers.

T1 sequence (O88871 41-940): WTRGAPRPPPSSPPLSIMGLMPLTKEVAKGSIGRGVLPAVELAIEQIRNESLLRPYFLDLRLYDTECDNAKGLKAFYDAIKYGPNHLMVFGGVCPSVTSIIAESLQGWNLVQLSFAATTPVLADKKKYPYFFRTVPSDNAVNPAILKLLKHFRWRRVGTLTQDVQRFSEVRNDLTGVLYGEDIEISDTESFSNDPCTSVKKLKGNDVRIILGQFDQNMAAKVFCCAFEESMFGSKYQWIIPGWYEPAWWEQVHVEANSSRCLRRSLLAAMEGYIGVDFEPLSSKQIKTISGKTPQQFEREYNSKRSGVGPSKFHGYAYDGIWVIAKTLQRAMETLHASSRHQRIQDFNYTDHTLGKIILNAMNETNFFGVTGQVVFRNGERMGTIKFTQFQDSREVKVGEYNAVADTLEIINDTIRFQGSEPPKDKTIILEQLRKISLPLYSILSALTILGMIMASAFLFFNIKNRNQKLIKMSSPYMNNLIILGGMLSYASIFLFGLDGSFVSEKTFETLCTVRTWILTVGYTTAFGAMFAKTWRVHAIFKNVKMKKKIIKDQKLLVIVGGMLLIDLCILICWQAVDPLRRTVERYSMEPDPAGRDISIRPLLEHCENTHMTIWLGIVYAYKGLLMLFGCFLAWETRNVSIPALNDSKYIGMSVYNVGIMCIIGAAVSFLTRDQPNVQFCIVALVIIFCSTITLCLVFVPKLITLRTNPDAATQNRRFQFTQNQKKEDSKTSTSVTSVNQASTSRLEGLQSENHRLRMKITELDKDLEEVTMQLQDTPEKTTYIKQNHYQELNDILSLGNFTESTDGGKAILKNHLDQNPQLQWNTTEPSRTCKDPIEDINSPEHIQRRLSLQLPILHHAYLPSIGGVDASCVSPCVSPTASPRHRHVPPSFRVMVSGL
T1 sequence (Q9Z0U4 17-960 limits assumed): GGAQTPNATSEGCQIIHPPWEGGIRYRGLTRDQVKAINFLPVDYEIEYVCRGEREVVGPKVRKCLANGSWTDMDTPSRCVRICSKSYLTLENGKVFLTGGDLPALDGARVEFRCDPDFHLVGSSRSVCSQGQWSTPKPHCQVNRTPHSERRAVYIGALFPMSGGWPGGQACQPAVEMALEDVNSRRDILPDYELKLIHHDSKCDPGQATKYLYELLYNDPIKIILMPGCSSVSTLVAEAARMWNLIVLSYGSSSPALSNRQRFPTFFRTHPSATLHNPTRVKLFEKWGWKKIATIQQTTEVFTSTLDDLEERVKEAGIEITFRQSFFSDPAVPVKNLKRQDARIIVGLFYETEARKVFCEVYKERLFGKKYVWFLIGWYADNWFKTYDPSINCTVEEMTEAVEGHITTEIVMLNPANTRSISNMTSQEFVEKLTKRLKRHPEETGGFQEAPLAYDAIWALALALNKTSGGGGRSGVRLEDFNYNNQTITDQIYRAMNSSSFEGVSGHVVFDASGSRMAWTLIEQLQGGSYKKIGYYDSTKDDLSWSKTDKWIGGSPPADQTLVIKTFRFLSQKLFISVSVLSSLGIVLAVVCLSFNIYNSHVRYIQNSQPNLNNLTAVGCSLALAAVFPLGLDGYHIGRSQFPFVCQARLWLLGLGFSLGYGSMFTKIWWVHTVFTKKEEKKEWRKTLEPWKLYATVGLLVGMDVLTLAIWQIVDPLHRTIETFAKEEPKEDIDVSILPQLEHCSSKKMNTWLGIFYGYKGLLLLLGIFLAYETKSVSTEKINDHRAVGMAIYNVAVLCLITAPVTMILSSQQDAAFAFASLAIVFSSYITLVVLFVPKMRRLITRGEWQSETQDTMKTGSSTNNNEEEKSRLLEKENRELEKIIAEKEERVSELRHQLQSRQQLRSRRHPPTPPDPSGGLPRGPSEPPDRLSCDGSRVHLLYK

The assay addresses T1, GABAB receptor (Rattus norvegicus, UniProt O88871+Q9Z0U4).
T1 construct: from tissue; host or cells: rat brain cortex membranes
The assay can be described thus: In vitro [35S]GTPγS binding assay in rat cortical membranes. In kind it is biochemical. Conditions: PAM EC50, [35S]GTPγS binding, read-out: In vitro PAM potency. The protocol:
In Vitro [^35S]GTPγS Binding Assay in Rat Cortical Membranes
Cortices of freshly harvested rat brains were dissected on an ice-cold surface and homogenized by a glass Dounce homogeniser immediately in ice-cold buffer containing 50 mM Tris, 5 mM MgCl2 and 1 mM EDTA (pH=7.6). Tissue homogenates were centrifuged at 40000 g for 15 min at 4° C. Membrane pellets were resuspended in the same buffer and membranes were incubated for 10 min at 30° C. in a shaking water bath to eliminate endogenous GABA. Homogenates were centrifuged again under the same conditions. The final pellets were resuspended in ice-cold buffer (pH=7.6) containing 50 mM Tris, 100 mM NaCl, 7 mM MgCl2, 1 mM EDTA and 1 mM dithiotreithol (DTT) to yield a concentration of 20 mg tissue weight/ml and frozen at −70° C. until use. The assay was done in a buffer containing 50 mM Tris (pH=7.4), 100 mM NaCl, 7 mM MgCl2, 1 mM EDTA and 1 mM DTT. Each assay tube contained 150 μL GDP (in a final concentration of 50 μM), 100 μL ligand and 125 μL of the membrane suspension ([…]). The assay tubes were preincubated for 10 min at 30° C. to assure equilibrium. Nonspecific binding was determined in the presence of 10 μM GTPγS; basal binding was determined in the presence of buffer only. After addition of […] [^35S]GTPγS in a volume of 25 μL to the tubes, membranes were incubated for an additional 60 min at 30° C. The assay was terminated by rapid filtration through Packard UniFilter GF/B using a Packard harvester and washed four times with 1 ml ice-cold buffer. After drying the filters at 40° C. for 1 h, 40 μL Microscint (Packard) was added to the filters and radioactivity of the filters was determined by a TopCount NXT (PerkinElmer, Waltham, MA; Alper and Nelson, Eur. J. Pharmacol. 1998, 343, 303-312; Rinken et al, Biochem. Pharmacol. 1999, 57, 155-162). Data thus gathered were used to determine PAM EC50 values for each compound as primary in vitro activity end point.
In Table 1 compounds of this invention measured in the [^35S]GTPγS binding assay are listed.
(Binding of GTPγS marks nucleotide exchange on a G protein.)
With `Cc1cc([C@@H]2CN(C(=O)CN)CC[C@H]2C)n2nc([C@H]3CC[C@H](C(F)(F)F)CC3)cc2n1` [Example 53], the EC50 lay in the range of 1000 to 10000 nM.

For `Cc1cc([C@H]2CN(C(=O)c3cscn3)CCO2)n2nc([C@H]3CC[C@H](C(F)(F)F)CC3)cc2n1` [Example 121], the EC50 fell in the range of 100 to 1000 nM. As for `Cc1cc([C@@H]2CCCOC2)n2nc([C@H]3CC[C@H](C(F)(F)F)CC3)cc2n1` (single isomer, unassigned) [Example 29], the figure is 100 to 1000 nM; as for `CCc1c(C)nc2cc([C@H]3CC[C@H](C(F)(F)F)CC3)nn2c1[C@@H]1CCCN(C(=O)OC)C1` [Example 51], 100 to 1000 nM; as for `COC(=O)N1CC[C@@H](C)[C@H](c2cc(C)nc3c(F)c([C@H]4CC[C@H](C(F)(F)F)CC4)nn23)C1` [Example 128], 1000 to 10000 nM.

Take `COC(=O)N1CCOC(c2cc(C)nc3cc([C@H]4CC[C@H](C(F)(F)F)CC4)nn23)C1` (some centres unmarked) [Example 84]: the EC50 was in the range of 100 to 1000 nM. As for `CCc1c(C)nc2cc([C@H]3CC[C@H](C(F)(F)F)CC3)nn2c1[C@]1(C)CCCN(C(C)=O)C1` [Example 34], the figure is under 100 nM; as for `Cc1nc2cc([C@H]3CC[C@H](C(F)(F)F)CC3)nn2c(C2CN(C(=O)C3(C)COC3)CC(F)(F)C2)c1C` (some centres unmarked) [Example 79], 100 to 1000 nM; as for `COC(=O)N1CCC[C@H](c2cc(C)nc3cc([C@H]4CC[C@H](C(F)(F)F)CC4)nn23)[C@@H]1C` [Example 97], 100 to 1000 nM. As for `Cc1cc([C@H]2CN(C=O)CCO2)n2nc([C@H]3CC[C@H](C(F)(F)F)CC3)cc2n1` [Example 86], the figure is 100 to 1000 nM; as for `COC(=O)N1CCOC(C)(c2cc(C)nc3cc([C@H]4CC[C@H](C(F)(F)F)CC4)nn23)C1` (some centres unmarked) [Example 73], 1000 to 10000 nM. Take `Cc1cc([C@@H]2CCCN(C(=O)C3CC3)C2)n2nc([C@H]3CC[C@H](C(F)(F)F)CC3)cc2n1` [Example 54]: the EC50 lay in the range of 100 to 1000 nM. For `COC(=O)N1C[C@@H](c2cc(C)nc3cc([C@H]4CC[C@H](C(F)(F)F)CC4)nn23)OCC1(C)C` (single isomer, unassigned) [Example 12] the value was 1000 to 10000 nM. For `COC(=O)N1CCS(=O)(=O)[C@@H](c2cc(C)nc3cc([C@H]4CC[C@H](C(F)(F)F)CC4)nn23)C1` [Example 90] the value was at least 10000 nM. For `COC(=O)N1CCSC(c2cc(C)nc3cc([C@H]4CC[C@H](C(F)(F)F)CC4)nn23)C1` (stereo partly drawn) [Example 126, methyl 2-{5-methyl-2-[trans-4-(trifluoromethyl)cyclohexyl]pyrazolo[1,5-a]pyrimidin-7-yl}thiomorpholine-4-carboxylate] the value was 100 to 1000 nM; for `Cc1cc([C@H]2CN(C=O)[C@H](C)CO2)n2nc([C@H]3CC[C@H](C(F)(F)F)CC3)cc2n1` [Example 108], 100 to 1000 nM. `Cc1cc(C2CCCOC2)n2nc([C@H]3CC[C@H](C(F)(F)F)CC3)cc2n1` (mixture of isomers) [Example 161]: the EC50 fell in the range of 100 to 1000 nM.

Regarding `Cc1cc([C@@H]2CCCN(C(=O)N3CCOCC3)C2)n2nc([C@H]3CC[C@H](C(F)(F)F)CC3)cc2n1` [Example 65], the EC50 lay in the range of 1000 to 10000 nM. As for `CCOC(=O)N1CCC[C@H](c2cc(C)nc3cc([C@H]4CC[C@H](C(F)(F)F)CC4)nn23)[C@@H]1C` [Example 107], the figure is 1000 to 10000 nM; as for `Cc1cc([C@H]2CN(S(N)(=O)=O)CCO2)n2nc([C@H]3CC[C@H](C(F)(F)F)CC3)cc2n1` [Example 25, (2R)-2-{5-methyl-2-[trans-4-(trifluoromethyl)cyclohexyl]pyrazolo[1,5-a]pyrimidin-7-yl}morpholine-4-sulfonamide], under 100 nM. For `CC(=O)N1CCCC(CF)(c2cc(C)nc3cc([C@H]4CC[C@H](C(F)(F)F)CC4)nn23)C1` (some centres unmarked) [Example 62] the value was 100 to 1000 nM; for `CC(=O)N1CCC[C@@](C)(c2c(C)c(C)nc3cc([C@H]4CC[C@H](C(F)(F)F)CC4)nn23)C1` [Example 45], 100 to 1000 nM. For `Cc1nc2cc([C@H]3CC[C@H](C(F)(F)F)CC3)nn2c([C@@H]2CN(C)CC[C@@H]2C)c1C` (racemic) [Example 56] the value was 1000 to 10000 nM; for `Cc1nc2cc([C@H]3CC[C@H](C(F)(F)F)CC3)nn2c(C2CN(C=O)CCO2)c1C` (some centres unmarked) [Example 80], 100 to 1000 nM. For the compound `Cc1nc2cc([C@H]3CC[C@H](C(F)(F)F)CC3)nn2c([C@@H]2CCCN(C(=O)[C@@H](N)CO)C2)c1C` [Example 21, (2S)-2-amino-1-[(3R)-3-{5,6-dimethyl-2-[trans-4-(trifluoromethyl)cyclohexyl]pyrazolo[1,5-a]pyrimidin-7-yl}piperidin-1-yl]-3-hydroxypropan-1-one], the EC50 fell in the range of 1000 to 10000 nM. Turning to `Cc1cc([C@@H]2CN(S(C)(=O)=O)CC[C@@H]2C)n2nc([C@H]3CC[C@H](C(F)(F)F)CC3)cc2n1` (racemic) [Example 85], the EC50 was 100 to 1000 nM. For `COC(=O)N1C[C@H](C)O[C@@H](c2cc(C)nc3cc([C@H]4CC[C@H](C(F)(F)F)CC4)nn23)C1` [Example 125] the value was 100 to 1000 nM. As for `COC(=O)N1C[C@@H](c2cc(C)nc3cc([C@H]4CC[C@H](C(F)(F)F)CC4)nn23)OC[C@H]1C` [Example 110], the EC50 fell in the range of 1000 to 10000 nM. For `COC(=O)N1CC[C@H](C)[C@@H](c2cc(C)nc3c(F)c([C@H]4CC[C@H](C(F)(F)F)CC4)nn23)C1` [Example 129] the value was 100 to 1000 nM; for `COC(=O)N1CC(c2c(C)c(C)nc3cc([C@H]4CC[C@H](C(F)(F)F)CC4)nn23)CC(F)(F)C1` (some centres unmarked) [Example 74], 100 to 1000 nM.

Take `CCOC(=O)N1CCO[C@H](c2cc(C)nc3cc([C@H]4CC[C@H](C(F)(F)F)CC4)nn23)C1` [Example 95]: the EC50 lay in the range of 1000 to 10000 nM. As for `COC(=O)N1CC[C@H](C)[C@H](c2cc(C)nc3cc([C@H]4CC[C@H](C(F)(F)F)CC4)nn23)C1` (single isomer, unassigned) [Example 6], the figure is 100 to 1000 nM; as for `COC(=O)N1C[C@H](c2cc(C)nc3cc([C@H]4CC[C@H](C(F)(F)F)CC4)nn23)OC[C@@H]1C(C)C` [Example 127], 100 to 1000 nM. Regarding `Cc1cc([C@@H]2CN(C=O)[C@@H](C)CO2)n2nc([C@H]3CC[C@H](C(F)(F)F)CC3)cc2n1` [Example 98], the EC50 lay within 1000 to 10000 nM. With `Cc1cc(C2(C)CN(C=O)CC(F)(F)C2)n2nc([C@H]3CC[C@H](C(F)(F)F)CC3)cc2n1` (some centres unmarked) [Example 78], the EC50 is 100 to 1000 nM. Consider `COC(=O)N1CC[C@@H](C)[C@@H](c2cc(C)nc3cc([C@H]4CC[C@H](C(F)(F)F)CC4)nn23)C1` (single isomer, unassigned) [Example 7], for which the EC50 lay within 100 to 1000 nM. As for `Cc1cc([C@@H]2CCCS(=O)(=O)C2)n2nc([C@H]3CC[C@H](C(F)(F)F)CC3)cc2n1` [Example 27, 3-{5-methyl-2-[trans-4-(trifluoromethyl)cyclohexyl]pyrazolo[1,5-a]pyrimidin-7-yl}-1λ^6-thiane-1,1-dione], the figure is 100 to 1000 nM.

For `Cc1cc([C@H]2CCCOC2)n2nc([C@H]3CC[C@H](C(F)(F)F)CC3)cc2n1` (single isomer, unassigned) [Example 28], the EC50 is under 100 nM. For `COC(=O)N1C[C@@H](c2cc(C)nc3cc([C@H]4CC[C@H](C(F)(F)F)CC4)nn23)OC[C@@H]1C` [Example 96] the value was 1000 to 10000 nM. For `Cc1cc(C2CN(C3COC3)CCC2(C)C)n2nc([C@H]3CC[C@H](C(F)(F)F)CC3)cc2n1` (some centres unmarked) [Example 60] the value was 100 to 1000 nM. For the compound `CC(=O)N1CCC[C@](C)(c2c(C)c(C)nc3cc([C@H]4CC[C@H](C(F)(F)F)CC4)nn23)C1` [Example 37], the EC50 is 100 to 1000 nM. As for `CC(=O)N1CC[C@H](C)[C@H](c2c(C)c(C)nc3cc([C@H]4CC[C@H](C(F)(F)F)CC4)nn23)C1` (racemic) [Example 55], the figure is 100 to 1000 nM; as for `CCc1c(C)nc2cc([C@H]3CC[C@H](C(F)(F)F)CC3)nn2c1[C@@]1(C)CCCN(C(C)=O)C1` [Example 35], under 100 nM; as for `Cc1cc([C@]2(C)CCCN(S(N)(=O)=O)C2)n2nc([C@H]3CC[C@H](C(F)(F)F)CC3)cc2n1` [Example 71], 1000 to 10000 nM. For `Cc1nc2cc([C@H]3CC[C@H](C(F)(F)F)CC3)nn2c([C@]2(C)CCCN(CC(N)=O)C2)c1C` [Example 49] the value was 1000 to 10000 nM; for `Cc1cc(C2CN(C=O)CCC2(C)C)n2nc([C@H]3CC[C@H](C(F)(F)F)CC3)cc2n1` (some centres unmarked) [Example 59], 100 to 1000 nM. For `CC(=O)N1CC[C@@H](C)[C@@H](c2cc(C)nc3c(F)c([C@H]4CC[C@H](C(F)(F)F)CC4)nn23)C1` (single isomer, unassigned) [Example 3] the value was 1000 to 10000 nM.
